The values below come from patent publication US20110172147A1, “NEUROPEPTIDE-2 RECEPTOR (Y-2R) AGONISTS” (priority 2009, published 2011).

What all share (type): cell-based
One experiment has as its target T1, Y1R (Homo sapiens, UniProt P25929).
T1 sequence (P25929 1-384): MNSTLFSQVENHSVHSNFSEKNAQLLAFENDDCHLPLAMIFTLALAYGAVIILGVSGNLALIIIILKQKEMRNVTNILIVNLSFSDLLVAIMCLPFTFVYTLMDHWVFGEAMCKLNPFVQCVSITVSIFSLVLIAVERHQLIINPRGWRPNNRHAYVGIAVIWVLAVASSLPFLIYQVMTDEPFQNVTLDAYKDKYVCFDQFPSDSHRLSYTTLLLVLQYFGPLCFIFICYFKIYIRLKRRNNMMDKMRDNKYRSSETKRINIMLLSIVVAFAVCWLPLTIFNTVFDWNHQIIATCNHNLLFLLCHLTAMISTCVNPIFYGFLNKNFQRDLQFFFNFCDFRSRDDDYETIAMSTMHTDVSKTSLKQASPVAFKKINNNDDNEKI
The experiment is described as follows: CaFlux Assay (FLIPR), Y1R.

For a further experiment, the target named is Y4R (Homo sapiens, UniProt P50391). Description: CaFlux Assay (FLIPR), Y4R.
Sequence of Y4R (P50391 whole entry): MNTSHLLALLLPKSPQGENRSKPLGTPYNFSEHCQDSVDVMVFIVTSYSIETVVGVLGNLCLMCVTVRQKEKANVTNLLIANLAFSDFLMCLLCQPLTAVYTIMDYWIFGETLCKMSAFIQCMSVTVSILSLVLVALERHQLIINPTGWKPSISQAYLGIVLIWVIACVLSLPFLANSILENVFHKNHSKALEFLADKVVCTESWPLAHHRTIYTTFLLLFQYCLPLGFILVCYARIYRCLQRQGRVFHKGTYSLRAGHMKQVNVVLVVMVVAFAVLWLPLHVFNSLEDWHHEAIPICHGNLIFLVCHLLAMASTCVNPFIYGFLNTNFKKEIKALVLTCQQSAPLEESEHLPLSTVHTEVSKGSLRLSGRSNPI
The target of another experiment is T2, Y5R (Homo sapiens, UniProt Q15761).
T2 sequence (Q15761 1-445): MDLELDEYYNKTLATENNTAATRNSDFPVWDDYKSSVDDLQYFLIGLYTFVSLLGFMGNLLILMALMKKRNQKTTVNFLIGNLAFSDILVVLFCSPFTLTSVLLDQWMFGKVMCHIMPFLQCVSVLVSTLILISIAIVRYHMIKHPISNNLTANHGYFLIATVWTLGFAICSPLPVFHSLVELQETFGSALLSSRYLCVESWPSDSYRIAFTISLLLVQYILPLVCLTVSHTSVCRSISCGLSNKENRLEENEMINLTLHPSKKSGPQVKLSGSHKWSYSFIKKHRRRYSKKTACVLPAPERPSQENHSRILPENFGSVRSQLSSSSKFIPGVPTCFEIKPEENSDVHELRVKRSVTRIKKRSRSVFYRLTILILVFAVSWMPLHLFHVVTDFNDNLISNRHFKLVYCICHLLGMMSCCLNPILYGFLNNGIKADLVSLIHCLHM
The experiment is described as follows: CaFlux Assay (FLIPR), Y5R.

For experiment [1], the target named is T3, hNPY2R (Homo sapiens, UniProt P49146).
T3 sequence (P49146 1-381): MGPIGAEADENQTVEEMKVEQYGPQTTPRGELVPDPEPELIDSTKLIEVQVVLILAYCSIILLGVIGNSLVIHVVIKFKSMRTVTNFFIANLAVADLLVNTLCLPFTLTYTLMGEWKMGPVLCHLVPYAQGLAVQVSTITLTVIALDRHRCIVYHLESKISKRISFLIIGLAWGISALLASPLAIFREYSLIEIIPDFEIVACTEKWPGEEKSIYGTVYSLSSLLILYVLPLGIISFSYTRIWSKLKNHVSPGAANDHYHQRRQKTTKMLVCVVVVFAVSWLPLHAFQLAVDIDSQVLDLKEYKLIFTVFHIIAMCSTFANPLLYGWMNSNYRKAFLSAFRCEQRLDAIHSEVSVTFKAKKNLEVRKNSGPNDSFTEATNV
The experiment is described as follows: cAMP Agonist Assay, HEK293/hNPY2R. Also noted: expressed in transfected cells; host or cells: HEK293/hNPY2R (G418 selection). The procedure, abridged:
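HEK293/hNPY2R cells (10,000/well, overnight) stimulated 30 min at room temperature with compound plus 5 μM forskolin and 0.5 mM IBMX (1.1% DMSO final). Lysate cAMP measured by competitive chemiluminescent ELISA (AP conjugate, CSPD substrate); quadruplicates.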

For experiment [2], the target named is T3, hNPY2R. Description: CaFlux Assay (FLIPR), Y2R. Also noted: expressed in transfected cells; host or cells: HEK-293 stably transfected with G protein chimera Gαqi9. The procedure, abridged: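 Intracellular calcium mobilisation was measured in HEK-293 cells engineered with Gαqi9 and the relevant receptor; responses were normalised as % of maximal positive-control signal.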

As for `CC[C@H](C)[C@H](NC(=O)CCCCCNC(=O)CCOCCOCCOCCOCCOCCOCCOCCOCCOCCOCCOCCOCCOCCOCCOCCOC)C(=O)N[C@@H](CCCCN)C(=O)N1CCN(c2ccc3ncn(CC(=O)N[C@@H](CCCNC(=N)N)C(=O)N[C@@H](Cc4c[nH]cn4)C(=O)N[C@@H](Cc4ccc(O)cc4)C(=O)N[C@@H](CC(C)C)C(=O)N[C@@H](CC(N)=O)C(=O)N[C@@H](Cc4c[nH]c5ccccc45)C(=O)N[C@H](C(=O)N[C@H](C(=O)N[C@@H](CCCNC(=N)N)C(=O)N[C@@H](CCC(N)=O)C(=O)N(C)[C@@H](CCCNC(=N)N)C(=O)N[C@@H](Cc4ccc(O)cc4)C(N)=O)[C@@H](C)O)C(C)C)c(=O)c3c2)CC1` [Example 19], the EC50 (commonly the concentration needed to bring the measured effect to its halfway point) at Y1R is greater than 6000 nM; on Y4R, greater than 6000 nM; at Y5R it was greater than 6000 nM; on hNPY2R [1], 0.26 nM; on hNPY2R [2] it was 0.424 nM.
For the compound `CC[C@H](C)[C@H](NC(=O)CCCCCNC(=O)CCOCCOCCOCCOCCOCCOCCOCCOCCOCCOCCOCCOCCOCCOCCOCCOCCOCCOCCOCCOCCOCCOCCOCCOC)C(=O)N[C@@H](CCCCN)C(=O)N1CCN(c2ccc3ncn(CC(=O)N[C@@H](CCCNC(=N)N)C(=O)N[C@@H](Cc4c[nH]cn4)C(=O)N[C@@H](Cc4ccc(O)cc4)C(=O)N[C@@H](CC(C)C)C(=O)N[C@@H](CC(N)=O)C(=O)N[C@@H](Cc4c[nH]c5ccccc45)C(=O)N[C@H](C(=O)N[C@H](C(=O)N[C@@H](CCCNC(=N)N)C(=O)N[C@@H](CCC(N)=O)C(=O)N(C)[C@@H](CCCNC(=N)N)C(=O)N[C@@H](Cc4ccc(O)cc4)C(N)=O)[C@@H](C)O)C(C)C)c(=O)c3c2)CC1` [Example 20], the EC50 on Y1R is greater than 6000 nM; on Y4R it was greater than 6000 nM; at Y5R, greater than 6000 nM; on hNPY2R [1], 0.89 nM; on hNPY2R [2] it was 0.488 nM.
On to `CCCCCCCCCCCCCCCCCCCC(=O)N[C@@H](CCC(=O)N[C@@H](CCC(=O)NCCCC[C@H](NC(=O)[C@@H](NC(=O)COCCOCCOC)[C@@H](C)CC)C(=O)N1CCN(c2ccc3ncn(CC(=O)N[C@@H](CCCNC(=N)N)C(=O)N[C@@H](Cc4c[nH]cn4)C(=O)N[C@@H](Cc4ccc(O)cc4)C(=O)N[C@@H](CC(C)C)C(=O)N[C@@H](CC(N)=O)C(=O)N[C@@H](Cc4c[nH]c5ccccc45)C(=O)N[C@H](C(=O)N[C@H](C(=O)N[C@@H](CCCNC(=N)N)C(=O)N[C@@H](CCC(N)=O)C(=O)N(C)[C@@H](CCCNC(=N)N)C(=O)N[C@@H](Cc4ccc(O)cc4)C(N)=O)[C@@H](C)O)C(C)C)c(=O)c3c2)CC1)C(=O)O)C(=O)O` [Example 22], for which the EC50 was greater than 6000 nM at Y1R; greater than 6000 nM on Y4R; 1510 nM at Y5R; 0.065 nM at hNPY2R [1]; 0.298 nM at hNPY2R [2].
With `CCCCCCCCCCCCCCCCCCCC(=O)N[C@@H](CCC(=O)N[C@@H](CCC(=O)NCCCC[C@H](NC(=O)[C@@H](NC(=O)CCOCCOCCOCCOCCOCCOCCOCCOC)[C@@H](C)CC)C(=O)N1CCN(c2ccc3ncn(CC(=O)N[C@@H](CCCNC(=N)N)C(=O)N[C@@H](Cc4c[nH]cn4)C(=O)N[C@@H](Cc4ccc(O)cc4)C(=O)N[C@@H](CC(C)C)C(=O)N[C@@H](CC(N)=O)C(=O)N[C@@H](Cc4c[nH]c5ccccc45)C(=O)N[C@H](C(=O)N[C@H](C(=O)N[C@@H](CCCNC(=N)N)C(=O)N[C@@H](CCC(N)=O)C(=O)N(C)[C@@H](CCCNC(=N)N)C(=O)N[C@@H](Cc4ccc(O)cc4)C(N)=O)[C@@H](C)O)C(C)C)c(=O)c3c2)CC1)C(=O)O)C(=O)O` [Example 23], the EC50 at Y1R was greater than 9000 nM; at Y4R it was greater than 9000 nM; on Y5R, 2210 nM; at hNPY2R [1] it was 0.05 nM; at hNPY2R [2] it was 0.295 nM.
On to `CCCCCCCCCCCCCCCCCCCC(=O)N[C@@H](CCC(=O)N[C@@H](CCC(=O)NCCCC[C@H](NC(=O)[C@@H](NC(=O)CCOCCOCCOCCOCCOCCOCCOCCOCCOCCOCCOCCOCCOCCOCCOCCOC)[C@@H](C)CC)C(=O)N1CCN(c2ccc3ncn(CC(=O)N[C@@H](CCCNC(=N)N)C(=O)N[C@@H](Cc4c[nH]cn4)C(=O)N[C@@H](Cc4ccc(O)cc4)C(=O)N[C@@H](CC(C)C)C(=O)N[C@@H](CC(N)=O)C(=O)N[C@@H](Cc4c[nH]c5ccccc45)C(=O)N[C@H](C(=O)N[C@H](C(=O)N[C@@H](CCCNC(=N)N)C(=O)N[C@@H](CCC(N)=O)C(=O)N(C)[C@@H](CCCNC(=N)N)C(=O)N[C@@H](Cc4ccc(O)cc4)C(N)=O)[C@@H](C)O)C(C)C)c(=O)c3c2)CC1)C(=O)O)C(=O)O` [Example 25], for which the EC50 on Y1R is greater than 9000 nM; at Y4R, greater than 9000 nM; on Y5R, 2580 nM; at hNPY2R [1] it was 0.09 nM; on hNPY2R [2], 0.14 nM. The “Y5R FLIPR agonist character (partial agonist mark)” value at Y5R was “P.A”.
For the compound `CCCCCCCCCCCCCCCCCCCC(=O)N[C@@H](CCC(=O)N[C@@H](CCC(=O)NCCCC[C@H](NC(=O)[C@@H](NC(=O)CCOCCOCCOCCOCCOCCOCCOCCOCCOCCOCCOCCOCCOCCOCCOCCOCCOCCOCCOCCOCCOCCOCCOCCOC)[C@@H](C)CC)C(=O)N1CCN(c2ccc3ncn(CC(=O)N[C@@H](CCCNC(=N)N)C(=O)N[C@@H](Cc4c[nH]cn4)C(=O)N[C@@H](Cc4ccc(O)cc4)C(=O)N[C@@H](CC(C)C)C(=O)N[C@@H](CC(N)=O)C(=O)N[C@@H](Cc4c[nH]c5ccccc45)C(=O)N[C@H](C(=O)N[C@H](C(=O)N[C@@H](CCCNC(=N)N)C(=O)N[C@@H](CCC(N)=O)C(=O)N(C)[C@@H](CCCNC(=N)N)C(=O)N[C@@H](Cc4ccc(O)cc4)C(N)=O)[C@@H](C)O)C(C)C)c(=O)c3c2)CC1)C(=O)O)C(=O)O` [Example 26], the EC50 on Y1R was greater than 9000 nM; at Y4R, greater than 9000 nM; on Y5R, 1920 nM; at hNPY2R [1] it was 0.1 nM; at hNPY2R [2], 0.01 nM. Moreover, the “Y5R FLIPR agonist character (partial agonist mark)” value on Y5R is recorded as “P.A”.
For `CCCCCCCCCCCCCCCC(=O)NCCCCCC(=O)N[C@H](C(=O)N[C@@H](CCCCNC(=O)CCOCCOCCOCCOCCOCCOCCOCCOC)C(=O)N1CCN(c2ccc3ncn(CC(=O)N[C@@H](CCCNC(N)=O)C(=O)N[C@@H](Cc4c[nH]cn4)C(=O)N[C@@H](Cc4ccc(O)cc4)C(=O)N[C@@H](CC(C)C)C(=O)N[C@@H](CC(N)=O)C(=O)N[C@@H](Cc4c[nH]c5ccccc45)C(=O)N[C@H](C(=O)N[C@H](C(=O)N[C@@H](CCCNC(=N)N)C(=O)N[C@@H](CCC(N)=O)C(=O)N(C)[C@@H](CCCNC(=N)N)C(=O)N[C@@H](Cc4ccc(O)cc4)C(N)=O)[C@@H](C)O)C(C)C)c(=O)c3c2)CC1)[C@@H](C)CC` [Example 30], the EC50 was greater than 6000 nM at Y1R; greater than 6000 nM on Y4R; 5690 nM at Y5R; 0.47 nM at hNPY2R [1]; 0.143 nM at hNPY2R [2].
With `CCCCCCCCCCCCCCCC(=O)NCCCCCC(=O)N[C@H](C(=O)N[C@@H](CCCCNC(=O)CCOCCOCCOCCOCCOCCOCCOCCOCCOCCOCCOCCOC)C(=O)N1CCN(c2ccc3ncn(CC(=O)N[C@@H](CCCNC(N)=O)C(=O)N[C@@H](Cc4c[nH]cn4)C(=O)N[C@@H](Cc4ccc(O)cc4)C(=O)N[C@@H](CC(C)C)C(=O)N[C@@H](CC(N)=O)C(=O)N[C@@H](Cc4c[nH]c5ccccc45)C(=O)N[C@H](C(=O)N[C@H](C(=O)N[C@@H](CCCNC(=N)N)C(=O)N[C@@H](CCC(N)=O)C(=O)N(C)[C@@H](CCCNC(=N)N)C(=O)N[C@@H](Cc4ccc(O)cc4)C(N)=O)[C@@H](C)O)C(C)C)c(=O)c3c2)CC1)[C@@H](C)CC` [Example 31], the EC50 at Y1R is greater than 6000 nM; at Y4R, greater than 6000 nM; at Y5R, 3510 nM; on hNPY2R [1] it was 0.37 nM; on hNPY2R [2] it was 0.111 nM.
